{
  "source": "PubChem BioAssay (NCI)",
  "assay_in_all_cases": "growth of human tumour cells (NCI), 48 h",
  "key": {"[1]": {"system": "IGROV1 ovarian"}, "[2]": {"system": "SK-MEL-2 melanoma"}, "[3]": {"system": "UACC-62 melanoma"}, "[4]": {"system": "NCI-H460 lung"}, "[5]": {"system": "HCT-116 colon"}, "[6]": {"system": "SW-620 colon"}, "[7]": {"system": "M14 melanoma"}, "[8]": {"system": "A498 renal"}, "[9]": {"system": "SK-MEL-5 melanoma"}, "[10]": {"system": "UACC-257 melanoma"}, "[11]": {"system": "ACHN renal"}, "[12]": {"system": "SF-539 CNS"}, "[13]": {"system": "OVCAR-8 ovarian"}, "[14]": {"system": "OVCAR-5 ovarian"}, "[15]": {"system": "U251 CNS"}, "[16]": {"system": "RXF 393 renal"}, "[17]": {"system": "SF-268 CNS"}, "[18]": {"system": "MCF7 breast"}, "[19]": {"system": "CCRF-CEM leukemia"}, "[20]": {"system": "NCI-H226 lung"}, "[21]": {"system": "SNB-19 CNS"}, "[22]": {"system": "PC-3 prostate"}, "[23]": {"system": "HOP-92 NSCLC"}, "[24]": {"system": "OVCAR-4 ovarian"}, "[25]": {"system": "NCI-H23 lung"}, "[26]": {"system": "COLO 205 colon"}, "[27]": {"system": "MDA-MB-231 breast"}, "[28]": {"system": "LOX IMVI melanoma"}, "[29]": {"system": "SK-MEL-28 melanoma"}, "[30]": {"system": "HCT-15 colon"}, "[31]": {"system": "SF-295 CNS"}, "[32]": {"system": "T-47D breast"}, "[33]": {"system": "MOLT-4 leukemia"}, "[34]": {"system": "DU-145 prostate"}, "[35]": {"system": "EKVX NSCLC"}, "[36]": {"system": "SK-OV-3 ovarian"}, "[37]": {"system": "CAKI-1 renal"}, "[38]": {"system": "RPMI-8226 leukemia"}, "[39]": {"system": "OVCAR-3 ovarian"}, "[40]": {"system": "MDA-MB-435"}, "[41]": {"system": "TK-10 renal"}, "[42]": {"system": "BT-549 breast"}, "[43]": {"system": "HOP-62 NSCLC"}, "[44]": {"system": "786-0 renal"}, "[45]": {"system": "HCC-2998 colon"}, "[46]": {"system": "K-562 leukemia"}, "[47]": {"system": "SNB-75 CNS"}, "[48]": {"system": "HT29 colon"}, "[49]": {"system": "SN12C renal"}, "[50]": {"system": "NCI/ADR-RES ovarian"}, "[51]": {"system": "UO-31 renal"}, "[52]": {"system": "NCI-H522 lung"}, "[53]": {"system": "KM12 colon"}, "[54]": {"system": "A549 NSCLC"}, "[55]": {"system": "HS 578T breast"}},
  "note": "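Interpolation was linear, between the two tested concentrations surrounding the appropriate level; five concentrations were tested over 48 hours in 96-well plates. GI50 is the concentration that inhibits growth by half. The concentration for full growth arrest is given as TGI.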",
  "data": [
    {"smiles": "C[C@H]1[C@H](C)CC[C@]2(C(=O)Nc3ccc4ncccc4c3)CC[C@]3(C)C(=CC[C@@H]4[C@@]5(C)CCCNC(C)(C)[C@@H]5CC[C@]43C)[C@H]12", "values": [
      {"measurement": "GI50", "setting": "[1]", "result": 1.7, "unit": "µM"},
      {"measurement": "TGI", "setting": "[1]", "result": 3.37, "unit": "µM"},
      {"measurement": "GI50", "setting": "[2]", "result": 1.84, "unit": "µM"},
      {"measurement": "TGI", "setting": "[2]", "result": 3.43, "unit": "µM"},
      {"measurement": "GI50", "setting": "[3]", "result": 1.74, "unit": "µM"},
      {"measurement": "TGI", "setting": "[3]", "result": 3.23, "unit": "µM"},
      {"measurement": "GI50", "setting": "[4]", "result": 1.94, "unit": "µM"},
      {"measurement": "TGI", "setting": "[4]", "result": 3.82, "unit": "µM"},
      {"measurement": "GI50", "setting": "[5]", "result": 1.6, "unit": "µM"},
      {"measurement": "TGI", "setting": "[5]", "result": 3.11, "unit": "µM"},
      {"measurement": "GI50", "setting": "[6]", "result": 1.8, "unit": "µM"},
      {"measurement": "TGI", "setting": "[6]", "result": 3.37, "unit": "µM"},
      {"measurement": "GI50", "setting": "[7]", "result": 1.94, "unit": "µM"},
      {"measurement": "TGI", "setting": "[7]", "result": 3.59, "unit": "µM"},
      {"measurement": "GI50", "setting": "[8]", "result": 1.56, "unit": "µM"},
      {"measurement": "TGI", "setting": "[8]", "result": 2.96, "unit": "µM"},
      {"measurement": "GI50", "setting": "[9]", "result": 1.85, "unit": "µM"},
      {"measurement": "TGI", "setting": "[9]", "result": 3.32, "unit": "µM"}
    ]},
    {"smiles": "COc1ccc(OC)c(C(Cc2ccnc3ccccc23)Cc2ccnc3ccccc23)c1", "values": [
      {"measurement": "TGI", "setting": "[10]", "result": "> 10", "unit": "µM"},
      {"measurement": "TGI", "setting": "[11]", "result": "> 10", "unit": "µM"},
      {"measurement": "TGI", "setting": "[12]", "result": "> 10", "unit": "µM"},
      {"measurement": "TGI", "setting": "[13]", "result": "> 10", "unit": "µM"},
      {"measurement": "TGI", "setting": "[14]", "result": "> 10", "unit": "µM"},
      {"measurement": "TGI", "setting": "[15]", "result": "> 10", "unit": "µM"},
      {"measurement": "TGI", "setting": "[16]", "result": "> 10", "unit": "µM"},
      {"measurement": "TGI", "setting": "[17]", "result": "> 10", "unit": "µM"},
      {"measurement": "TGI", "setting": "[1]", "result": "> 10", "unit": "µM"},
      {"measurement": "TGI", "setting": "[18]", "result": "> 10", "unit": "µM"},
      {"measurement": "TGI", "setting": "[19]", "result": "> 10", "unit": "µM"},
      {"measurement": "TGI", "setting": "[20]", "result": "> 10", "unit": "µM"},
      {"measurement": "TGI", "setting": "[21]", "result": "> 10", "unit": "µM"},
      {"measurement": "TGI", "setting": "[2]", "result": "> 10", "unit": "µM"},
      {"measurement": "TGI", "setting": "[22]", "result": "> 10", "unit": "µM"},
      {"measurement": "TGI", "setting": "[23]", "result": "> 10", "unit": "µM"},
      {"measurement": "TGI", "setting": "[24]", "result": "> 10", "unit": "µM"},
      {"measurement": "TGI", "setting": "[25]", "result": "> 10", "unit": "µM"},
      {"measurement": "TGI", "setting": "[26]", "result": "> 10", "unit": "µM"},
      {"measurement": "TGI", "setting": "[3]", "result": "> 10", "unit": "µM"},
      {"measurement": "TGI", "setting": "[27]", "result": "> 10", "unit": "µM"},
      {"measurement": "TGI", "setting": "[4]", "result": "> 10", "unit": "µM"},
      {"measurement": "TGI", "setting": "[28]", "result": "> 10", "unit": "µM"},
      {"measurement": "TGI", "setting": "[29]", "result": "> 10", "unit": "µM"},
      {"measurement": "TGI", "setting": "[30]", "result": "> 10", "unit": "µM"},
      {"measurement": "TGI", "setting": "[5]", "result": "> 10", "unit": "µM"},
      {"measurement": "TGI", "setting": "[31]", "result": "> 10", "unit": "µM"},
      {"measurement": "TGI", "setting": "[32]", "result": "> 10", "unit": "µM"},
      {"measurement": "TGI", "setting": "[33]", "result": "> 10", "unit": "µM"},
      {"measurement": "TGI", "setting": "[34]", "result": "> 10", "unit": "µM"},
      {"measurement": "TGI", "setting": "[35]", "result": "> 10", "unit": "µM"},
      {"measurement": "TGI", "setting": "[36]", "result": "> 10", "unit": "µM"},
      {"measurement": "TGI", "setting": "[37]", "result": "> 10", "unit": "µM"},
      {"measurement": "TGI", "setting": "[38]", "result": "> 10", "unit": "µM"},
      {"measurement": "TGI", "setting": "[39]", "result": "> 10", "unit": "µM"},
      {"measurement": "TGI", "setting": "[40]", "result": "> 10", "unit": "µM"},
      {"measurement": "TGI", "setting": "[41]", "result": "> 10", "unit": "µM"},
      {"measurement": "TGI", "setting": "[42]", "result": "> 10", "unit": "µM"},
      {"measurement": "TGI", "setting": "[6]", "result": "> 10", "unit": "µM"},
      {"measurement": "TGI", "setting": "[43]", "result": "> 10", "unit": "µM"},
      {"measurement": "TGI", "setting": "[44]", "result": "> 10", "unit": "µM"},
      {"measurement": "TGI", "setting": "[45]", "result": "> 10", "unit": "µM"},
      {"measurement": "TGI", "setting": "[7]", "result": "> 10", "unit": "µM"},
      {"measurement": "TGI", "setting": "[46]", "result": "> 10", "unit": "µM"},
      {"measurement": "TGI", "setting": "[47]", "result": "> 10", "unit": "µM"},
      {"measurement": "TGI", "setting": "[48]", "result": "> 10", "unit": "µM"},
      {"measurement": "TGI", "setting": "[49]", "result": "> 10", "unit": "µM"},
      {"measurement": "TGI", "setting": "[8]", "result": "> 10", "unit": "µM"},
      {"measurement": "TGI", "setting": "[50]", "result": "> 10", "unit": "µM"},
      {"measurement": "TGI", "setting": "[51]", "result": "> 10", "unit": "µM"},
      {"measurement": "TGI", "setting": "[52]", "result": "> 10", "unit": "µM"},
      {"measurement": "TGI", "setting": "[9]", "result": "> 10", "unit": "µM"},
      {"measurement": "TGI", "setting": "[53]", "result": "> 10", "unit": "µM"},
      {"measurement": "TGI", "setting": "[54]", "result": "> 10", "unit": "µM"},
      {"measurement": "TGI", "setting": "[55]", "result": "> 10", "unit": "µM"}
    ]}
  ]
}
